Source: patent US6326401A, “Formulation for the oromucosal, in particular pernasal, route” (Immunotech, priority 1998, dated 2001)
Read-outs that look alike come from different tables or passages of the source.

Assays:
[1] = Compared bioavailability of aqueous nasal solution/aqueous subcutaneous solution (Example 9); type: in vivo, healthy volunteer subjects; details: 4 mg; for Tmax / half-life: human, serum; for half-life: read-out: Terminal half-life (converted)
Method: (§1) The serum concentrations of IS 159 as a function of time were measured on healthy volunteer subjects.

[2] = Comparison between aqueous nasal solution and sublingual formulation (Example 8); type: in vivo, healthy volunteer subjects; details: human, serum, 10 mg; for AUC(0-inf): read-out: AUC from time 0 to infinity
Method: as §1

[3] = Dose/effect and reproducibility of bioavailability, nasal 4 mg and 7 mg (Example 6); type: in vivo, human subjects; details: with Labrasol
Method: The black squares represent the dose of 4 mg and the white squares represent the dose of 7 mg.

[4] = Reproducibility of bioavailability of the aqueous nasal solution plus Labrasol (Example 5); type: in vivo, human subjects; details: 100 μl (4 mg), with Labrasol, 8 subjects
[5] = Compared bioavailability of sublingual formulations without and with Labrasol (Example 7); type: in vivo, healthy volunteer subjects; details: 10 mg, sublingual tablet; for AUC at 6 h / Tmax: human, serum; for AUC at 6 h: observation period 6 hours; for Tmax: read-out: apparent Tmax (converted)
Method: The serum concentrations of IS 159 as a function of time were measured on healthy volunteer subjects. These subjects received an identical amount of active substance IS 159 (10 mg) in the form of tablets in the absence or presence of Labrasol® (2%) by sublingual administration.

[6] = Bioavailability test: serum IS 159 after nasal administration of the solution and control solution of example 1 (Example 4); type: in vivo, man; details: for AUC at 4 h / Tmax: human, serum; for AUC at 4 h: observation period 4 hours; for Tmax: read-out: apparent Tmax (converted)
[7] = control solution without Labrasol

Q: For `NCCc1c[nH]c2ccc(OCC(=O)NC(Cc3ccc(O)cc3)C(=O)NCC(N)=O)cc12` (centres unmarked) [IS 159, tryptamine 5-O-carboxymethyl-tyrosyl-glycinamide], which Tmax ([1]; sc, mean s.c.) is on record?
A: The Tmax was 30 min.

Q: What about the half-life ([1]; sc, mean s.c.) of the same compound?
A: Its half-life is 150 min.

Q: What about the Tmax ([1]; mean nasal, with Labrasol) of the same compound?
A: The Tmax was 15 min.

Q: And the half-life ([1]; mean nasal, with Labrasol)?
A: Its half-life is 150 min.

Q: And the AUC/dose ([1]; mean nasal, with Labrasol)?
A: The AUC/dose was 14 (h.ng/ml)(mg dose IS 159).

Q: And the Cmax/dose ([1]; mean nasal, with Labrasol)?
A: The Cmax/dose was 11 ng/mL.

Q: What about the AUC/dose ([1]; mean s.c.) of the same compound?
A: Its AUC/dose is 36 (h.ng/ml)(mg dose IS 159).

Q: And the Cmax/dose ([1]; mean s.c.)?
A: Its Cmax/dose is 20 ng/mL.

Q: What about the “AUC/dose, ratio Nasal/s.c.” value ([1]; nasal (with Labrasol) / s.c.) of the same compound?
A: The value was 39%.

Q: And the “Cmax/dose, ratio Nasal/s.c.” value ([1]; nasal (with Labrasol) / s.c.)?
A: Its value is 55%.

Q: And the “Tmax, Nasal/s.c.” value ([1]; nasal (with Labrasol) vs s.c.)?
A: Its value is “reduced”.

Q: What about the bioavailability ([1]; nasal solution with Labrasol, compared with subcutaneous) of the same compound?
A: The bioavailability was “significant and faster than by the subcutaneous route”.

Q: What about the “terminal half-life, change” value ([1]; nasal vs subcutaneous) of the same compound?
A: Its value is “not changed significantly”.

Q: And the AUC(0-inf) ([2]; nasal solution with Labrasol)?
A: Its AUC(0-inf) is 166 ng·h/mL.

Q: What about the AUC(0-inf) ([2]; sublingual tablet with 2% Labrasol) of the same compound?
A: The AUC(0-inf) was 12 ng·h/mL.

Q: What about the half-life ([2]; nasal and sublingual with Labrasol, read-out: terminal half-life (converted)) of the same compound?
A: Its half-life is ~150 min.

Q: And the “intra-individual and interindividual reproducibility of the pharmacokinetic parameters” value [3]?
A: Its value is “good”.

Q: What about the “ratios of the AUCs and the maximum concentrations” value [3] of the same compound?
A: The value was “constant and high”.

Q: What about the “interindividual and intraindividual reproducibilities of the pharmacokinetic parameters” value [4] of the same compound?
A: Its value is “good”.

Q: What about the AUC at 6 h ([5]; control (2% lactose)) of the same compound?
A: The AUC at 6 h was 0.42 ng·h/mL.

Q: And the Tmax ([5]; control without Labrasol)?
A: Its Tmax is 45 min.

Q: What about the AUC at 6 h ([5]; with 2% Labrasol) of the same compound?
A: The AUC at 6 h was 9.72 ng·h/mL.

Q: What about the Tmax ([5]; with 2% Labrasol) of the same compound?
A: Its Tmax is 35 min.

Q: What about the “absorption (Cmax)” value ([5]; with 2% Labrasol vs control) of the same compound?
A: The value was “increases the absorption (Cmax)”.

Q: What about the AUC at 4 h [6, 7] of the same compound?
A: The AUC at 4 h was 12 ng·h/mL.

Q: What about the Tmax [6, 7] of the same compound?
A: The Tmax was 30 min.

Q: What about the AUC at 4 h ([6]; with Labrasol) of the same compound?
A: The AUC at 4 h was 85 ng·h/mL.

Q: And the Tmax ([6]; with Labrasol)?
A: Its Tmax is 10 to 15 min.

Q: What about the “absorption (Cmax)” value ([6]; with Labrasol vs control solution) of the same compound?
A: Its value is “increases the absorption (Cmax)”.
